Measurements as given in patent US8765808B2, “Treatment or prevention of cancer and precancerous disorders” (CHS Pharma, Inc., priority 2005, dated 2014).
Read-outs that look alike come from different tables or passages of the source.

Experiments:
[1] = tested on: lung carcinoma cell line designated A549; experiment: MTS cell viability after pretreatment and oxidative stress, lung cancer cells
Method: Cell viability was determined by the [sequence] 96®-Aqueous One Cell Proliferation Assay (Promega) according to the manufacturer's instructions. The assay utilizes a novel tetrazolium compound (3-(4,5-dimethylthiazol-2-yl)-5-(3-carboxymethoxyphenyl)-2-(4-sulfophenyl)-2H-tetrazolium; MTS) and an electron-coupling reagent (phenazine ethosulfate; PES). Metabolically active cells convert the MTS to a water-soluble formazan by the action of cellular dehydrogenases. The amount of formazan produced is measured by absorbance at 490 nm using a colorimetric microtiter plate reader (BIORAD; Model 2550). Absorbance is directly proportional to the number of viable cells.
Experiments using similar methods were performed with a lung carcinoma cell line designated A549. […] Cells were grown in Ham's F12K medium supplemented with final concentrations of 2 mM L-glutamine, 1.6 g/L sodium bicarbonate and 10% fetal bovine serum. Cultures were maintained between 6×10^3-6×10^4 cells/cm^2 in standard tissue culture flasks. The protocol for pretreatment of cells with 500 μM sulindac followed by a two hour exposure to various concentrations of TBHP was the same as that described for the RKO colon cancer cells.
Following a 24 hr pretreatment with 500 μM sulindac, the cells were washed once to remove the excess sulindac before exposure to TBHP for 2 hr.

[2] = tested on: SCC skin cancer cells; experiment: Intracellular ROS by indicator dye fluorescence, SCC skin cancer cells
Method: SCC skin cancer cells were plated onto 6-well plates at a cell density of 50-60% confluence. The cultures were pretreated with sulindac (500 uM) for 24 hours followed by the addition of TBHP (100 uM) for two hours. During this period of time, the cell density in the 6-well plates increased to 80-90% confluent.

[3] = tested on: Normal HEK skin cells (human neonatal epidermal keratinocytes); experiment: Intracellular ROS by indicator dye fluorescence, normal HEK skin cells; settings: Table 4, alone or after Sul 500 uM
Method: Experimental conditions: Normal HEK skin cells plated onto 6-well plates at cell density of 60-70% confluence. Sulindac (0.5 mM)×24 hours (cell density remained about the same) followed by TBHP×2 hours followed by ROS indicator dye (5 μM)×1 hour (Table 1).
Human neonatal epidermal keratinocytes were plated into 6-well plates at a cell density of 60-70% confluence. The cultures were pretreated with sulindac (500 uM) for 34 hours followed by the addition of different concentrations of TBHP for 2 hours. During this period of time, the cell density in the 6-well plates remained the same (there was no increase in cell proliferation). This was followed by the addition of the ROS indicator dye.

[4] = tested on: SCC-25 squamous cell skin cancer cell line; experiment: MTS cell viability after pretreatment and oxidative stress, SCC skin cancer cells; type: cell-based, human; settings: for sensitizing skin cancer cells to killing by TBHP: other NSAIDs at comparable active concentrations, compared to sulindac; for enhancing the killing of skin cancer cells (SCC-25) when exposed to TBHP: 24 hr pretreatment with 500 μM sulindac sulfone, 500 μM SMO or 50 μM sulindac sulfide, TBHP 2 hr (FIG. 14); for cancer killing effect of epimers, SCC cells: 500 μM 24 hours, then TBHP 2 hours (FIG. 24)
Method: SCC-25 is a human squamous cell carcinoma cell line developed by J G Rheinwald [Rheinwald, 1981]. […] The cells were maintained in minimum essential medium (Eagle) supplemented with 2 mM L-glutamine, Earle's BSS containing 1.5 g/L sodium bicarbonate, 0.1 mM non-essential amino acids, 1.0 mM sodium pyruvate and 10% fetal bovine serum.
The experimental approach was to pretreat SCC cells with sulindac for 24 hr prior to exposure to TBHP for 2 hr. Sulindac (Sigma; S-8139) was freshly prepared as a 1M stock solution in 1M Tris.Cl, pH 8.0. SCC cells were suspended in culture medium containing 10% fetal bovine serum at a cell density of 6×10^5 cells/ml. Cell suspensions containing 500 μM sulindac or no sulindac (Control) were plated in 96 well microtiter plates with a total of 6×10^4 cells per well. The plates were incubated for 24 hr at 37° C. in a 5% CO2 incubator. The culture medium was then removed and the cells washed once with fresh culture medium without serum. After removal of the wash solution, fresh culture medium without serum that contained the indicated final concentration of TBHP was added to the cells for 2 hrs. Serum was omitted from the medium during the two-hour exposure to TBHP since TBHP may be rapidly depleted in the presence of serum.

[5] = tested on: RKO colon cancer cell line; experiment: MTS cell viability after pretreatment and oxidative stress, RKO colon cancer cells; type: cell-based, human; settings: other NSAIDs at comparable active concentrations, compared to sulindac
Method: RKO is a human colon carcinoma cell line developed by Michael Brattain [Brattain, 1984]. […] The cells were maintained in minimum essential medium (Eagle) supplemented with 2 mM L-glutamine, Earle's BSS containing 1.5 g/L sodium bicarbonate, 0.1 mM non-essential amino acids, 1.0 mM sodium pyruvate and 10% fetal bovine serum.
Experiments were performed with the RKO colon cancer cells that were pretreated with 500 μM sulindac using TBHP.

[6] = tested on: WM-266-4 Melanoma skin cell line; experiment: MTS cell viability after pretreatment and oxidative stress, melanoma cells; type: cell-based, human; settings: sulindac sulfide pretreatment
[7] = tested on: neonatal rat cardiac myocytes; settings: for Amount Formed (sulindac sulfide): Normal Cardiomyocyte, 200 μM epimer, 4 hours, serum-free medium
Method: FIG. 23 is a graph showing the metabolic conversion of the R & S epimers of sulindac to the sulfide form in cardiac myocytes. The amount of sulindac sulfide formed by 10^6 cells incubated with 400 μM sulindac, R, S or RS mixture is measured as a function of time of incubation. […] The absorbance was measured at 330 nm.
To inhibit fibroblast growth, 0.1 mM bromodeoxyuridine was included in the medium for the first 3-5 days after plating. Cell cultures are incubated with sulindac or its individual epimers for specified times.
(§1) After the incubations, the cells were pelleted by low speed centrifugation and lysed by the addition of 200 μl of 100% acetonitrile, followed by vigorous vortexing. The lysate was centrifuged for 15 minutes at 14,000×g to pellet cell debris. 50 μl of the supernatant was transferred to an HPLC autosampler microvial. The separation of metabolites is carried out on a 4.6×75 mm C18 reverse-phase column. […] The metabolites are detected at a wavelength of 330 nm.
(§2) The cells are incubated with 200 μM R- or S-Sulindac epimer for 4 hours in a defined, serum-free medium (EX-CELL^SM). After incubation, the cells are collected, rinsed and lysed with acetonitrile. The cytosolic contents are separated on a C-18 column.

[8] = tested on: Cancer Lung cells; experiment: Conversion of sulindac epimers to sulindac sulfide in whole cells, lung cancer; type: in vitro ADME; settings: 200 μM epimer, 4 hours, serum-free medium
Method: as §1, §2

[9] = tested on: HeLa cancer cells; settings: 200 μM epimer, 4 hours, serum-free medium
Method: as §1, §2

[10] = tested on: Cancer Skin (skin SCC) cells; settings: 200 μM epimer, 4 hours, serum-free medium
Method: as §1, §2

[11] = tested on: Normal lung cells; experiment: Conversion of sulindac epimers to sulindac sulfide in whole cells, normal lung; type: in vitro ADME; settings: 200 μM epimer, 4 hours; for Amount Formed (sulindac sulfide): serum-free medium
Method: as §1, §2

[12] = cited from earlier work
[13] = tested on: precancerous growths and/or BCC's; experiment: Topical sulindac gel followed by hydrogen peroxide solution in patients; settings: applied alone to the skin condition
[14] = Table 2, Sul 0.5 mM 24 hours and/or TBHP 100 μM 2 hours
[15] = Table 3, Sul 500 μM 24 hours and/or TBHP 100 μM 2 hours

Molecule: CC(C)(C)OO [TBHP, tert-butyl hydroperoxide]
- viable cells without sulindac pretreatment ([1]; 1.5-2.0 mM TBHP, 2 hr, untreated (no sulindac) cells): approximately 50%
- % Cells with ROS Uptake by Fluorescence [2, 14]: 11%
- fold increase compared to untreated control [2, 14]: 7 fold
- % Cells containing ROS [2, 15]: 11%
- fold increase compared to untreated control [2, 15]: 7 fold
- ROS levels in SCC skin cancer cells, agent alone ([2]; sulindac 500 uM or TBHP 100 uM alone): enhanced the ROS levels
- % Cells containing ROS ([3]; TBHP 200 uM 2 hours): 2%
- fold increase compared to untreated control ([3]; TBHP 200 uM 2 hours): 0 fold
- % Cells containing ROS ([3]; TBHP 400 uM 2 hours): 5%
- fold increase compared to untreated control ([3]; TBHP 400 uM 2 hours): 2 fold
- % Cells containing ROS ([3]; TBHP 800 uM 2 hours): 60%
- fold increase compared to untreated control ([3]; TBHP 800 uM 2 hours): 20 fold

Molecule: CC(C)Cc1ccc(C(C)C(=O)O)cc1 (stereo not shown) [ibuprofen]
- sensitizing skin cancer cells to killing by TBHP [4]: ineffective
- sensitizing colon cancer cells to killing by TBHP [5]: ineffective

Molecule: sulindac methionine sulfoxide [SMO]
- enhancing the killing of skin cancer cells (SCC-25) when exposed to TBHP [4]: not effective

Molecule: O=C(O)Cc1ccccc1Nc1c(Cl)cccc1Cl [diclofenac sodium]
- sensitizing skin cancer cells to killing by TBHP [4]: ineffective
- sensitizing colon cancer cells to killing by TBHP [5]: ineffective

Molecule: CSc1ccc(/C=C2/C(C)=C(CC(=O)O)c3cc(F)ccc32)cc1 [sulindac sulfide]
- reducing the cell viability of lung cancer cells exposed to TBHP ([1]; 250 μM sulindac sulfide 24 hr, TBHP 2 hr (FIG. 15)): had activity in reducing the cell viability
- enhancing the killing of skin cancer cells (SCC-25) when exposed to TBHP [4]: not effective
- reducing the cell viability of melanoma cells exposed to TBHP [6]: had activity in reducing the cell viability

Molecule: CC1=C(CC(=O)O)c2cc(F)ccc2/C1=C\c1ccc([S@+](C)[O-])cc1 [S-epimer, S-sulindac sulfoxide]
- cancer killing effect of epimers, lung cancer cells [1]: comparable in potency to the sulindac racemic mixture
- cancer killing effect of epimers, SCC cells [4]: comparable in potency to the sulindac racemic mixture
- Amount Formed (sulindac sulfide) [7]: 120.9 picomoles
- Amount Formed (sulindac sulfide) [8]: 17.7 picomoles
- Amount Formed (sulindac sulfide) [9]: 7.9 picomoles
- Amount Formed (sulindac sulfide) [10]: 57 picomoles
- Amount Formed (sulindac sulfide) [11]: 35 picomoles

Molecule: CC1=C(CC(=O)O)c2cc(F)ccc2/C1=C\c1ccc(S(C)(=O)=O)cc1 [sulindac sulfone]
- killing effect in all cancer cell studies ([1]; FIG. 15, 500 μM sulindac, 250 μM sulindac sulfone): most potent killing effect
- enhancing the killing of skin cancer cells (SCC-25) when exposed to TBHP [4]: effective in enhancing the killing

Molecule: CC1=C(CC(=O)O)c2cc(F)ccc2/C1=C\c1ccc([S+](C)[O-])cc1 (stereo not shown) [R-epimer, R-sulindac sulfoxide]
- cancer killing effect of epimers, lung cancer cells [1]: comparable in potency to the sulindac racemic mixture
- cancer killing effect of epimers, SCC cells [4]: comparable in potency to the sulindac racemic mixture
- Amount Formed (sulindac sulfide) [7]: 11.6 picomoles
- conversion to the sulfide compared to the S-epimer ([7]; normal cardiac myocytes, 400 μM, time course (FIG. 23)): greater than 10 fold less conversion
- Amount Formed (sulindac sulfide) [8]: 7.5 picomoles
- Amount Formed (sulindac sulfide) [9]: 9.3 picomoles
- Amount Formed (sulindac sulfide) [10]: 35.3 picomoles
- R/S (%) [11]: 6%
- R/S (%) ([11]; listed as R epimer): < 10%
- Amount Formed (sulindac sulfide) [11]: 2.2 picomoles

Molecule: CC(=O)Oc1ccccc1C(=O)O [Acetylsalicylic acid]
- sensitizing skin cancer cells to killing by TBHP [4]: ineffective
- sensitizing colon cancer cells to killing by TBHP [5]: ineffective

Molecule: OO [hydrogen peroxide]
- skin irritation ([12]; 3-8% hydrogen peroxide, 24 hours under occlusive dressing, intact and abraded skin, rabbits): nonirritating
- skin irritation ([12]; 10% hydrogen peroxide, 4 hour exposure): slight
- skin irritation ([12]; 35% hydrogen peroxide): mild
- classification as skin irritant by the European Union criteria ([12]; hydrogen peroxide solutions of 35% or less, rabbits): would not be classified as skin irritants
- effect on the precancerous or cancerous growth when applied alone [13]: no effect
